Data from patent US7732199B2, “Process for making transplantable cardiomyocytes from human embryonic stem cells” (Geron Corporation, priority 2001, dated 2010).

Key:
[1] = tested on: hES cells of the H1 or H9 line being cultured as embryoid bodies
[2] = tested on: hES-derived cardiomyocytes; experiment: Pharmacological response: contraction rate of beating areas of hES-derived cardiomyocytes; format: cell-based, human; conditions: for chronotropic effect: FIG. 5 Panels B to E
Method: EBs were plated on to gelatin-coated 24-well plates and allowed to differentiate, as in Example 2. Contracting cardiomyocytes at differentiation day 15-21 were used for examining pharmacological response. The frequency of the spontaneous beating was measured by counting the contraction rate of the beating areas maintained in the differentiation medium in a 37° C. heating chamber of an inverted microscope. The cells were then incubated with test compounds in the incubator for 20-30 min, and observed for contraction rate. Dose-dependent effects were determined by cumulatively applying of increasing concentrations of each substrate. Data represent the mean pulsation rate±standard error of the mean measured on 10-20 beating areas.
Differentiated cells were incubated with various concentrations of the drug and the number of beats per minute was counted. The cells were then washed with medium, maintained in differentiation medium for 24 h and observed for the time taken to recover contractility.

[3] = tested on: cardiomyogenic cell line developed from bone marrow stroma; conditions: treated for 24 hours; cited from earlier work
[4] = tested on: Undifferentiated hES cells of the H7 line; experiment: Direct differentiation of plated hES cells to contracting cardiomyocytes; format: cell-based, human; conditions: 10 μM at day 10-12 or 12-14; no embryoid body stage
Method: Cardiomyocyte differentiation was also achieved in a direct differentiation paradigm. Undifferentiated hES cells of the H7 line were dissociated and plated directly onto gelatin-coated plates without going through an embryoid body stage. The plated cells were cultured in differentiation medium (80% KO-DMEM, 1 mM L-glutamine, 0.1 mM β-mercaptoethanol, 1% amino acids, and 20% fetal bovine serum). Contracting cardiomyocytes were found at day 18 in cultures treated with 10 μM 5-aza-deoxy-cytidine at day 10-12 or 12-14, and at later times in all cultures.

For CC1=C(/C=C/C(C)=C/C=C/C(C)=C/C(=O)O)C(C)(C)CCC1 [RA, all-trans retinoic acid], the “toxicity to the cells” value [1] was “toxic” and the “beating cells compared with untreated cultures” value ([1]; doses between 10^−9 and 10^−5 M, at days 4-8, 8-15, or 4-15) was “no increase”.

With CC(C)NCC(O)c1ccc(O)c(O)c1 (stereo not shown) [isoprenaline] the chronotropic effect [2] was “positive chronotropic effects”.

With CC(C)(C)NCC(O)c1cc(Cl)c(N)c(Cl)c1 (stereo not shown) [clenbuterol] the “beating rate after treatment” value ([2]; 1-10 nM, cells taken at Day 72, from about 72 beats/min, p<0.005) was “about 98 beats/min”.

In the case of COc1ccc([C@@H]2Sc3ccccc3N(CCN(C)C)C(=O)[C@@H]2OC(C)=O)cc1 [diltiazem], the “beating areas that stopped contraction” value ([2]; 10^−5 M) is reported as 100%, the “time until contraction recovered to normal levels after removal of the drug” value ([2]; cells washed and kept in differentiation medium) is reported as 24 to 48 h and the beating rate ([2]; various concentrations, incubated 20-30 min, differentiation day 15-21, FIG. 5 Panel A) is reported as “inhibited”.

For Nc1ncn([C@@H]2O[C@H](CO)[C@@H](O)[C@H]2O)c(=O)n1 [5-azacytidine], the “cells forming myotube-like structures, acquiring cardiomyocyte markers and beginning to beat” value [3] is given as 30%.

In the case of CNC[C@H](O)c1cccc(O)c1 [phenylephrine], the chronotropic effect [2] is reported as “positive chronotropic effects”.

For C[S+](C)[O-] [DMSO, dimethyl sulfoxide], the “toxicity to the cells” value [1] was “toxic”, the “beating areas compared with non-treated cultures” value ([1]; 0.5% from days 0-4) was “fewer” and the beating cells ([1]; 0.8% or 1%) was “absent”. The “α-MHC expression compared with untreated cultures” value ([1]; DMSO treatment) was “significant reduction”.

In the case of Nc1ncn([C@H]2C[C@H](O)[C@@H](CO)O2)c(=O)n1 [5-aza-deoxy-cytidine], the “proportion of beating areas in the culture” value ([1]; 1 to 10 μM at day 6-8) is reported as “increased”, the “expression of cardiac α-MHC (ratio of αMHC to 18S RNA)” value ([1]; 1 to 10 μM at day 6-8, harvested at day 15) is reported as “significantly increased” and the “day at which contracting cardiomyocytes were found” value [4] is reported as 18 days.
